Laboratory results: patent US10711004B2 (Genentech, Inc., priority 2018, dated 2020)
Where two headings read alike, the source gives them in different places.

Biological target: human TRPA1 channel (Homo sapiens (Human), UniProt O75762)
Assay: hTRPA1 CHO Ca2+ FLIPR Tetra assay, block of cinnamaldehyde induced calcium influx
Assay type: cell-based
Details: for IC50: CHO cells expressing TRPA1, Hill coefficient fixed to 1.5; for TRPA1 IC50 compared with 3-azabicyclo[3.1.0]hexene linker and cyclobutylene linker analogues: bicyclo[3.1.0]hexene linker compounds versus same-substituent analogues (compounds 16, 191; 26, 1)
Procedure: CHO cells expressing TRPA1 were plated into 384-well plates, incubated overnight at 37° C., and loaded with BD calcium indicator dye for 1 hr at 37° C. followed by 15 minutes at room temperature. The assay buffer was Hank's Balanced Salt Solution (HBSS) containing 20 mM HEPES (pH readjusted to 7.4) along with 0.02% BSA.
Following dye load and plate cool down, compounds were added to the cells using FLIPR Tetra. Plates were then incubated with compounds for 10 minutes or 90 minutes at room temperature prior to adding agonist. Following this incubation, about an EC50 concentration of cinnamaldehyde (75) was added to active the channels and block of cinnamaldehyde induced calcium influx was measured.
Fixing the Hill coefficient will generally reduce variability of the IC50 determination. The IC50 results were individually examined to make sure the MIN and MAX points were set correctly prior to validation of the results.

[1] = read-out: hTRPA1 IC50 (10 min), compounds incubated 10 minutes at room temperature before cinnamaldehyde agonist
[2] = read-out: hTRPA1 IC50 (90 min), compounds incubated 90 minutes at room temperature before cinnamaldehyde agonist

human TRPA1 channel, sequence (O75762 whole entry): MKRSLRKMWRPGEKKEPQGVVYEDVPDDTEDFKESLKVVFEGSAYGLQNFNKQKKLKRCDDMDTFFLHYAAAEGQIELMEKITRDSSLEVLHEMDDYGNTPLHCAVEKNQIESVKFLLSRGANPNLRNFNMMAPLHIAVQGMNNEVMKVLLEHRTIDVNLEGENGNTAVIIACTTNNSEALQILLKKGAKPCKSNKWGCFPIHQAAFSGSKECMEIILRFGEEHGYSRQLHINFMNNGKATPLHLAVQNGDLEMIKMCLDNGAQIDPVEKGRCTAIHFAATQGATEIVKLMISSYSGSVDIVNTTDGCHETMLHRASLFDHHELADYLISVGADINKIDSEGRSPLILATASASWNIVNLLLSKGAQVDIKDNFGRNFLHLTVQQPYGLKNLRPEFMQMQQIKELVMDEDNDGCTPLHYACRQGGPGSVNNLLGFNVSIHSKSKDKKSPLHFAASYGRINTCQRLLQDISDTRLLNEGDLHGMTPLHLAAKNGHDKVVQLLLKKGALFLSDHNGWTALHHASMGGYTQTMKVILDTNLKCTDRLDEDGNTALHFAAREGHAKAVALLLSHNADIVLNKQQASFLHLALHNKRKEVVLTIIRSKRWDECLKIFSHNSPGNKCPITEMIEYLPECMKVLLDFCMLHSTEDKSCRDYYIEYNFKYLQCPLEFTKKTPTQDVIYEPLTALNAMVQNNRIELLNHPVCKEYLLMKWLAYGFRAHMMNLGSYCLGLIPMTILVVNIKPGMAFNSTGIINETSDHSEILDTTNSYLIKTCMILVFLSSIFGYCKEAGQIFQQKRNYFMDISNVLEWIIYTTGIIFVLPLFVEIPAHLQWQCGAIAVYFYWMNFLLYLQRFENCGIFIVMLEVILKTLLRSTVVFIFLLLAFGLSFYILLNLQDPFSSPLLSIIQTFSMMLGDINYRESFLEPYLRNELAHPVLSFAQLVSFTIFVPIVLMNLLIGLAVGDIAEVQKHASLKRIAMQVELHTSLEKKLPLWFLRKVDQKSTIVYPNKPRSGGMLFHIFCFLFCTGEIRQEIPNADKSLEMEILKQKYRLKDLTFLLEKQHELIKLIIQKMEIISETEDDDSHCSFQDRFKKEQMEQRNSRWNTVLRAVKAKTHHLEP

SMILES | IC50 [1] [nM] | IC50 [2] [nM] | TRPA1 IC50 compared with 3-azabicyclo[3.1.0]hexene linker and cyclobutylene linker analogues
Cn1cnc2ncn(Cc3nc([C@H]4C[C@H](C(=O)c5cccc(Cl)c5)C4)no3)c(=O)c21 [Example Compound 101, 1-((3-((1r,3r)-3-(3-chlorobenzoyl)cyclobutyl)-1,2,4-oxadiazol-5-yl)methyl)-7-methyl-1,7-dihydro-6H-purin-6-one] | 117 | 64 | –
Cn1cnc2ncn(Cc3nc([C@@H]4[C@H]5C=C(c6cccc(C(F)F)c6)C[C@H]54)no3)c(=O)c21 [Example Compound 102, 1-((3-((1R,5R,6S)-3-(3-(difluoromethyl)phenyl)bicyclo[3.1.0]hex-2-en-6-yl)-1,2,4-oxadiazol-5-yl)methyl)-7-methyl-1,7-dihydro-6H-purin-6-one] | 49.5 | 37 | –
Cn1cnc2ncn(Cc3nc([C@H]4[C@@H]5C=C(c6cccc(C(F)F)c6)C[C@@H]54)no3)c(=O)c21 [Example Compound 103, 1-((3-((1S,5S,6R)-3-(3-(difluoromethyl)phenyl)bicyclo[3.1.0]hex-2-en-6-yl)-1,2,4-oxadiazol-5-yl)methyl)-7-methyl-1,7-dihydro-6H-purin-6-one] | 31.9 | 26 | –
Cn1nnc2ncn(Cc3nc([C@@H]4CC[C@@H](c5ccc(F)cc5)C4)no3)c(=O)c21 [Example Compound 106, 6-((3-((1R,3R)-3-(4-fluorophenyl)cyclopentyl)-1,2,4-oxadiazol-5-yl)methyl)-1-methyl-1,6-dihydro-7H-[1,2,3]triazolo[4,5-d]pyrimidin-7-one] | 40.3 | 44 | –
Cn1nnc2ncn(Cc3nc([C@H]4[C@@H]5C=C(c6ccccc6)C[C@@H]54)no3)c(=O)c21 [Example Compound 108, 1-methyl-6-((3-((1 S,5 S,6R)-3-phenylbicyclo[3.1.0]hex-2-en-6-yl)-1,2,4-oxadiazol-5-yl)methyl)-1,6-dihydro-7H-[1,2,3]triazolo[4,5-d]pyrimidin-7-one] | 6.12 | 3.1 | –
Cn1nnc2ncn(Cc3nc([C@@H]4[C@H]5C=C(c6ccccc6)C[C@H]54)no3)c(=O)c21 [Example Compound 109, 1-methyl-6-((3-((1R,5R,6S)-3-phenylbicyclo[3.1.0]hex-2-en-6-yl)-1,2,4-oxadiazol-5-yl)methyl)-1,6-dihydro-7H-[1,2,3]triazolo[4,5-d]pyrimidin-7-one] | 10.4 | 4.1 | –
Cn1cnc2ncn(Cc3nc([C@@H]4[C@H]5C=C(c6ccc(F)cn6)C[C@H]54)no3)c(=O)c21 [Example Compound 110, 1-((3-((1R,5R,6S)-3-(5-fluoropyridin-2-yl)bicyclo[3.1.0]hex-2-en-6-yl)-1,2,4-oxadiazol-5-yl)methyl)-7-methyl-1,7-dihydro-6H-purin-6-one] | 64 | 27 | –
Cn1cnc2ncn(Cc3nc([C@H]4[C@@H]5C=C(c6ccc7scnc7c6)C[C@@H]54)no3)c(=O)c21 [Example Compound 112, 1-((3-((1S,5S,6R)-3-(benzo[d]thiazol-5-yl)bicyclo[3.1.0]hex-2-en-6-yl)-1,2,4-oxadiazol-5-yl)methyl)-7-methyl-1,7-dihydro-6H-purin-6-one] | 36 | 24 | –
Cn1cnc2ncn(Cc3nc([C@@H]4[C@H]5C=C(c6ccc7scnc7c6)C[C@H]54)no3)c(=O)c21 [Example Compound 113, 1-((3-((1R,5R,6S)-3-(benzo[d]thiazol-5-yl)bicyclo[3.1.0]hex-2-en-6-yl)-1,2,4-oxadiazol-5-yl)methyl)-7-methyl-1,7-dihydro-6H-purin-6-one] | 36.2 | 34 | –
Cn1cnc2ncn(Cc3nc([C@H]4[C@@H]5C=C(c6cccc(F)c6)C[C@@H]54)no3)c(=O)c21 [Example Compound 114, 1-((3-((1S,5S,6R)-3-(3-fluorophenyl)bicyclo[3.1.0]hex-2-en-6-yl)-1,2,4-oxadiazol-5-yl)methyl)-7-methyl-1,7-dihydro-6H-purin-6-one] | 6.4 | 1.7 | improved TRPA1 IC50 values
Cn1cnc2ncn(Cc3nc([C@@H]4[C@H]5C=C(c6cccc(F)c6)C[C@H]54)no3)c(=O)c21 [Example Compound 115, 1-((3-((1R,5R,6S)-3-(3-fluorophenyl)bicyclo[3.1.0]hex-2-en-6-yl)-1,2,4-oxadiazol-5-yl)methyl)-7-methyl-1,7-dihydro-6H-purin-6-one] | 9.73 | 2.3 | improved TRPA1 IC50 values

Further lines, results first:

IC50 [1] [nM] | IC50 [2] [nM] | TRPA1 IC50 compared with 3-azabicyclo[3.1.0]hexene linker and cyclobutylene linker analogues | SMILES
12.8 | 2.5 | – | Cn1cnc2ncn(Cc3nc([C@H]4[C@@H]5CN(c6cccc(F)c6F)C[C@@H]54)no3)c(=O)c21 [Example Compound 100, 1-((3-((1R,5S,6r)-3-(2,3-difluorophenyl)-3-azabicyclo[3.1.0]hexan-6-yl)-1,2,4-oxadiazol-5-yl)methyl)-7-methyl-1,7-dihydro-6H-purin-6-one]
43 | 30 | – | Cc1noc2ncn(Cc3nc([C@H]4[C@@H]5CN(c6cc(Cl)ccn6)C[C@@H]54)no3)c(=O)c12 [Example Compound 104, 5-((3-((1R,5S,6r)-3-(4-chloropyridin-2-yl)-3-azabicyclo[3.1.0]hexan-6-yl)-1,2,4-oxadiazol-5-yl)methyl)-3-methylisoxazolo[5,4-d]pyrimidin-4(5H)-one]
21.5 | 3.9 | – | Cn1cnc2ncn(Cc3nc([C@H]4[C@@H]5CN(c6ccc(F)c(F)c6)C[C@@H]54)no3)c(=O)c21 [Example Compound 105, 1-((3-((1R,5S,6r)-3-(3,4-difluorophenyl)-3-azabicyclo[3.1.0]hexan-6-yl)-1,2,4-oxadiazol-5-yl)methyl)-7-methyl-1,7-dihydro-6H-purin-6-one]
49 | 9.1 | – | Cc1cc(C#N)nc2ncn(Cc3nc([C@H]4[C@@H]5CN(c6cc(Cl)ccn6)C[C@@H]54)no3)c(=O)c12 [Example Compound 107, 3-((3-((1R,5S,6r)-3-(4-chloropyridin-2-yl)-3-azabicyclo[3.1.0]hexan-6-yl)-1,2,4-oxadiazol-5-yl)methyl)-5-methyl-4-oxo-3,4-dihydropyrido[2,3-d]pyrimidine-7-carbonitrile]
116 | 78 | – | Cn1cnc2ncn(Cc3nc([C@H]4[C@@H]5C=C(c6ccc(F)cn6)C[C@@H]54)no3)c(=O)c21 [Example Compound 111, 1-((3-((1S,5S,6R)-3-(5-fluoropyridin-2-yl)bicyclo[3.1.0]hex-2-en-6-yl)-1,2,4-oxadiazol-5-yl)methyl)-7-methyl-1,7-dihydro-6H-purin-6-one]
61.1 | 50 | – | Cc1ncn2ncn(Cc3nc([C@H]4[C@@H]5CN(c6cc(Cl)ccn6)C[C@@H]54)no3)c(=O)c12 [Example Compound 116, 3-((3-((1R,5S,6r)-3-(4-chloropyridin-2-yl)-3-azabicyclo[3.1.0]hexan-6-yl)-1,2,4-oxadiazol-5-yl)methyl)-5-methylimidazo[5,1-f][1,2,4]triazin-4(3H)-one]
19.2 | 7.5 | – | Cc1cnn2ncn(Cc3nc([C@H]4[C@@H]5CN(c6cc(F)ccn6)C[C@@H]54)no3)c(=O)c12 [Example Compound 117, 3-((3-((1R,5S,6r)-3-(4-fluoropyridin-2-yl)-3-azabicyclo[3.1.0]hexan-6-yl)-1,2,4-oxadiazol-5-yl)methyl)-5-methylpyrazolo[5,1-f][1,2,4]triazin-4(3H)-one]
